# Source: US9734283B2, “Genomic features associated with epigenetic control regions and transgenerational inheritance of epimutations” (priority 2011, dated 2017)
# System: sperm promoter epigenome (DNA methylation)
# Test: MeDIP-Chip (Nimblegen promoter tiling array, competitive hybridization) of F3 sperm DNA with qPCR validation
# Assay type: in vivo, mouse
# Conditions: F3 generation sperm
# Method: Sperm heads were separated from tails and purified following the protocol described^53 (without protease inhibitors) from a total of six F3 vinclozolin generation mice and six F3 control generation mice in the range of 13-15 months of age. Sperm heads were then further purified using a 70% sucrose gradient centrifugation, based on the method described.^54 Purified sperm heads were resuspended in 1 ml buffer 0.5M tris-HCl, pH 8, 0.5M EDTA, 10% SDS and treated with 100 μl proteinase K (20 mg/mL) and 100 μl DDT (0.1 M) at 55° C. for 1 hour. DNA was precipitated with 50% isopropanol, washed with 70% ethanol and resuspended in DEPC H20. Individual sperm DNA was used as samples for further methylated DNA immunoprecipitation.^15 Two pools of samples were produced for each experimental treatment (control and vinclozolin), therefore each pool contained DNA from three animals from different litters. The MeDIP was performed as follows: 6 μg of genomic DNA was subjected to series of three 20 pulse sonications at 20% amplitude and the appropriate fragment size (200-1000 bp) was verified through 2% agarose gels; the sonicated genomic DNA was resuspended in 350 μl TE and denaturated for 10 min at 95° C. and then immediately placed on ice for 5 min; 100 μl of 5×IP buffer (50 mM Na-phosphate pH7, 700 mM NaCl, 0.25% Triton X-100) was added to the sonicated and denatured DNA.
# An overnight incubation of the DNA was performed with 5 μg of antibody anti-5-methylcytidine monoclonal from Diagenode S.A at 4° C. on a rotating platform. Protein A/G beads from Santa Cruz were prewashed on PBS-BSA 0.1% and resuspended in 40 μl 1× IP buffer. Beads were then added to the DNA-antibody complex and incubated 2 h at 4° C. on a rotating platform. Beads bound to DNA-antibody complex were washed 3 times with 1 ml 1×IP buffer; washes included incubation for 5 min at 4° C. on a rotating platform and then centrifugation at 6000 rpm for 2 min. Beads-DNA-antibody complex were then resuspended in 250 μl digestion buffer (50 mM Tris HCl pH 8, 10 mM EDTA, 0.5% SDS) and 3.5 μl of proteinase K (20 mg/ml) was added to each sample and then incubated overnight at 55° C. on a rotating platform. DNA purification was performed first with phenol and then with chloroform: isoamyl alcohol. Two washes were then performed with 70% ethanol, 1 M NaCl and glycogen. MeDIP-selected DNA was then resuspended in 30 μl TE buffer. MeDIP sperm DNA was pooled into each of the four above mentioned groups, adding equal amounts of sperm DNA from each individual sample to the pools. Therefore, a total of four pools of MeDIP sperm DNA (C1, C2, V1 and V2) were used for the ChIP arrays.
# Nimblegen Mouse Promoter 3×720K format microarray (Mouse Ref Seq promoter array) was used, each subarray contains 709,520 probes. […]
compound,measurement,setting,value
"C=CC1(C)OC(=O)N(c2cc(Cl)cc(Cl)c2)C1=O (racemic) [vinclozolin, (RS)-3-(3,5-dichlorophenyl)-5-methyl-5-vinyl-1,3-oxazolidine-2,4-dione]",number of confirmed sites with decreased DNA methylation,CD-1,12
same,number of confirmed sites with increased DNA methylation,CD-1,28
same,"number of promoters with differential DNA methylation regions (DMR), MeDIP-Chip","CD-1, vinclozolin 100 mg/kg/day lineage vs control",66
same,number of DMR confirmed with qPCR,"CD-1, vinclozolin lineage vs control",40
